Source: ChEMBL document CHEMBL1153245, “A profile of the in vitro anti-tumor activity of imidazolium-based ionic liquids” (2010)

Legend:
Assay type in all cases: functional
CAKI-1 = experiment: Anticancer activity against human Caki1 cells assessed cell growth at 10 uM after 48 hrs by sulforhodamine B assay relative to control
SN12C = experiment: Anticancer activity against human SN12C cells assessed cell growth at 10 uM after 48 hrs by sulforhodamine B assay relative to control
TK-10 = experiment: Anticancer activity against human TK10 cells assessed cell growth at 10 uM after 48 hrs by sulforhodamine B assay relative to control
UO-31 = experiment: Anticancer activity against human UO31 cells assessed cell growth at 10 uM after 48 hrs by sulforhodamine B assay relative to control
PC-3 = experiment: Anticancer activity against human PC3 cells assessed cell growth at 10 uM after 48 hrs by sulforhodamine B assay relative to control
NCI/ADR-RES = experiment: Anticancer activity against human NCI/ADR-RES cells assessed cell growth at 10 uM after 48 hrs by sulforhodamine B assay relative to control
MDA-MB-231 = experiment: Anticancer activity against human MDA-MB-231 cells assessed cell growth at 10 uM after 48 hrs by sulforhodamine B assay relative to control
BT-549 = experiment: Anticancer activity against human BT549 cells assessed cell growth at 10 uM after 48 hrs by sulforhodamine B assay relative to control
T47D = experiment: Anticancer activity against human T47D cells assessed cell growth at 10 uM after 48 hrs by sulforhodamine B assay relative to control
MDA-MB-468 = experiment: Anticancer activity against human MDA-MB-468 cells assessed cell growth at 10 uM after 48 hrs by sulforhodamine B assay relative to control
[1] = Anticancer activity against human RPMI8266 cells assessed cell growth at 10 uM after 48 hrs by sulforhodamine B assay relative to control
A549 = experiment: Anticancer activity against human A549 cells assessed cell growth at 10 uM after 48 hrs by sulforhodamine B assay relative to control
HOP-62 = experiment: Anticancer activity against human HOP62 cells assessed cell growth at 10 uM after 48 hrs by sulforhodamine B assay relative to control
HOP-92 = experiment: Anticancer activity against human HOP92 cells assessed cell growth at 10 uM after 48 hrs by sulforhodamine B assay relative to control
NCI-H23 = experiment: Anticancer activity against human NCI-H23 cells assessed cell growth at 10 uM after 48 hrs by sulforhodamine B assay relative to control
NCI-H322M = experiment: Anticancer activity against human NCI-H322M cells assessed cell growth at 10 uM after 48 hrs by sulforhodamine B assay relative to control
NCI-H460 = experiment: Anticancer activity against human NCI-H460 cells assessed cell growth at 10 uM after 48 hrs by sulforhodamine B assay relative to control
NCI-H522 = experiment: Anticancer activity against human NCI-H522 cells assessed cell growth at 10 uM after 48 hrs by sulforhodamine B assay relative to control
COLO 205 = experiment: Anticancer activity against human COLO205 cells assessed cell growth at 10 uM after 48 hrs by sulforhodamine B assay relative to control
HCC 2998 = experiment: Anticancer activity against human HCC2998 cells assessed cell growth at 10 uM after 48 hrs by sulforhodamine B assay relative to control
HCT-116 = experiment: Anticancer activity against human HCT116 cells assessed cell growth at 10 uM after 48 hrs by sulforhodamine B assay relative to control
HCT-15 = experiment: Anticancer activity against human HCT15 cells assessed cell growth at 10 uM after 48 hrs by sulforhodamine B assay relative to control
HT-29 = experiment: Anticancer activity against human HT-29 cells assessed cell growth at 10 uM after 48 hrs by sulforhodamine B assay relative to control
KM12 = experiment: Anticancer activity against human KM12 cells assessed cell growth at 10 uM after 48 hrs by sulforhodamine B assay relative to control
SF-295 = experiment: Anticancer activity against human SF295 cells assessed cell growth at 10 uM after 48 hrs by sulforhodamine B assay relative to control
SF-539 = experiment: Anticancer activity against human SF539 cells assessed cell growth at 10 uM after 48 hrs by sulforhodamine B assay relative to control
SNB-19 = experiment: Anticancer activity against human SNB19 cells assessed cell growth at 10 uM after 48 hrs by sulforhodamine B assay relative to control
SNB-75 = experiment: Anticancer activity against human SNB75 cells assessed cell growth at 10 uM after 48 hrs by sulforhodamine B assay relative to control
U-251 = experiment: Anticancer activity against human U251 cells assessed cell growth at 10 uM after 48 hrs by sulforhodamine B assay relative to control
LOX IMVI = experiment: Anticancer activity against human LOXIMVI cells assessed cell growth at 10 uM after 48 hrs by sulforhodamine B assay relative to control
M14 = experiment: Anticancer activity against human M14 cells assessed cell growth at 10 uM after 48 hrs by sulforhodamine B assay relative to control
SK-MEL-2 = experiment: Anticancer activity against human SK-MEL-2 cells assessed cell growth at 10 uM after 48 hrs by sulforhodamine B assay relative to control
SK-MEL-28 = experiment: Anticancer activity against human SK-MEL-28 cells assessed cell growth at 10 uM after 48 hrs by sulforhodamine B assay relative to control
SK-MEL-5 = experiment: Anticancer activity against human SK-MEL-5 cells assessed cell growth at 10 uM after 48 hrs by sulforhodamine B assay relative to control
UACC-257 = experiment: Anticancer activity against human UACC257 cells assessed cell growth at 10 uM after 48 hrs by sulforhodamine B assay relative to control
UACC-62 = experiment: Anticancer activity against human UACC62 cells assessed cell growth at 10 uM after 48 hrs by sulforhodamine B assay relative to control
IGROV-1 = experiment: Anticancer activity against human IGROV1 cells assessed cell growth at 10 uM after 48 hrs by sulforhodamine B assay relative to control
OVCAR-3 = experiment: Anticancer activity against human OVCAR-3 cells assessed cell growth at 10 uM after 48 hrs by sulforhodamine B assay relative to control
OVCAR-4 = experiment: Anticancer activity against human OVCAR4 cells assessed cell growth at 10 uM after 48 hrs by sulforhodamine B assay relative to control
OVCAR-5 = experiment: Anticancer activity against human OVCAR5 cells assessed cell growth at 10 uM after 48 hrs by sulforhodamine B assay relative to control
OVCAR-8 = experiment: Anticancer activity against human OVCAR8 cells assessed cell growth at 10 uM after 48 hrs by sulforhodamine B assay relative to control
SK-OV-3 = experiment: Anticancer activity against human SKOV3 cells assessed cell growth at 10 uM after 48 hrs by sulforhodamine B assay relative to control
A498 = experiment: Anticancer activity against human A498 cells assessed cell growth at 10 uM after 48 hrs by sulforhodamine B assay relative to control

**Q.** With `CCCCCCCC[n+]1ccn(C)c1.F[B-](F)(F)F` as the compound, how does the Activity (CAKI-1) read?
**A.** 60.04%

**Q.** What about the Activity (SN12C) of the same compound?
**A.** 97.45%

**Q.** What about the Activity (TK-10) of the same compound?
**A.** 76.77%

**Q.** What about the Activity (UO-31) of the same compound?
**A.** 76.51%

**Q.** And the Activity (PC-3)?
**A.** 83.86%

**Q.** What about the Activity (NCI/ADR-RES) of the same compound?
**A.** 91.95%

**Q.** And the Activity (MDA-MB-231)?
**A.** 78.93%

**Q.** What about the Activity (BT-549) of the same compound?
**A.** 64.81%

**Q.** What about the Activity (T47D) of the same compound?
**A.** 75.19%

**Q.** What about the Activity (MDA-MB-468) of the same compound?
**A.** 39.75%

**Q.** And the Activity [1]?
**A.** 64.64%

**Q.** And the Activity (A549)?
**A.** 89.22%

**Q.** And the Activity (HOP-62)?
**A.** 91.23%

**Q.** And the Activity (HOP-92)?
**A.** 87.53%

**Q.** And the Activity (NCI-H23)?
**A.** 59.28%

**Q.** What about the Activity (NCI-H322M) of the same compound?
**A.** 101.83%

**Q.** And the Activity (NCI-H460)?
**A.** 98.66%

**Q.** And the Activity (NCI-H522)?
**A.** 69.23%

**Q.** What about the Activity (COLO 205) of the same compound?
**A.** 77.64%

**Q.** What about the Activity (HCC 2998) of the same compound?
**A.** 70.57%

**Q.** And the Activity (HCT-116)?
**A.** 66.53%

**Q.** And the Activity (HCT-15)?
**A.** 97.47%

**Q.** What about the Activity (HT-29) of the same compound?
**A.** 70.49%

**Q.** And the Activity (KM12)?
**A.** 79.57%

**Q.** And the Activity (SF-295)?
**A.** 78.23%

**Q.** And the Activity (SF-539)?
**A.** 74.98%

**Q.** What about the Activity (SNB-19) of the same compound?
**A.** 81.8%

**Q.** And the Activity (SNB-75)?
**A.** 84.84%

**Q.** What about the Activity (U-251) of the same compound?
**A.** 73.04%

**Q.** And the Activity (LOX IMVI)?
**A.** 72.64%

**Q.** And the Activity (M14)?
**A.** 87.56%

**Q.** What about the Activity (SK-MEL-2) of the same compound?
**A.** 90.35%

**Q.** And the Activity (SK-MEL-28)?
**A.** 105.03%

**Q.** And the Activity (SK-MEL-5)?
**A.** 81.77%

**Q.** What about the Activity (UACC-257) of the same compound?
**A.** 87.94%

**Q.** And the Activity (UACC-62)?
**A.** 90.08%

**Q.** What about the Activity (IGROV-1) of the same compound?
**A.** 85.75%

**Q.** What about the Activity (OVCAR-3) of the same compound?
**A.** 102.92%

**Q.** What about the Activity (OVCAR-4) of the same compound?
**A.** 66.15%

**Q.** And the Activity (OVCAR-5)?
**A.** 92.12%

**Q.** And the Activity (OVCAR-8)?
**A.** 73.05%

**Q.** What about the Activity (SK-OV-3) of the same compound?
**A.** 81.16%

**Q.** What about the Activity (A498) of the same compound?
**A.** 99.32%

**Q.** For `CCCCCCCCOS(=O)(=O)[O-].CCCCCCCC[n+]1ccn(C)c1`, which Activity (CAKI-1) is on record?
**A.** 56.81%

**Q.** And the Activity (SN12C)?
**A.** 92.64%

**Q.** What about the Activity (TK-10) of the same compound?
**A.** 68.07%

**Q.** And the Activity (UO-31)?
**A.** 71.08%

**Q.** And the Activity (PC-3)?
**A.** 94.3%

**Q.** What about the Activity (NCI/ADR-RES) of the same compound?
**A.** 94.1%

**Q.** And the Activity (MDA-MB-231)?
**A.** 66.28%

**Q.** What about the Activity (BT-549) of the same compound?
**A.** 67.86%

**Q.** And the Activity (T47D)?
**A.** 80.27%

**Q.** What about the Activity (MDA-MB-468) of the same compound?
**A.** 38.15%

**Q.** What about the Activity [1] of the same compound?
**A.** 116.11%

**Q.** What about the Activity (A549) of the same compound?
**A.** 82.78%

**Q.** And the Activity (HOP-62)?
**A.** 90.54%

**Q.** And the Activity (HOP-92)?
**A.** 107.58%

**Q.** And the Activity (NCI-H23)?
**A.** 56.59%

**Q.** What about the Activity (NCI-H322M) of the same compound?
**A.** 89.12%

**Q.** What about the Activity (NCI-H460) of the same compound?
**A.** 95.98%

**Q.** And the Activity (NCI-H522)?
**A.** 57.44%

**Q.** And the Activity (COLO 205)?
**A.** 82.4%

**Q.** And the Activity (HCC 2998)?
**A.** 69.81%

**Q.** What about the Activity (HCT-116) of the same compound?
**A.** 55.91%

**Q.** What about the Activity (HCT-15) of the same compound?
**A.** 107.62%

**Q.** What about the Activity (HT-29) of the same compound?
**A.** 67.62%

**Q.** What about the Activity (KM12) of the same compound?
**A.** 76.23%

**Q.** And the Activity (SF-295)?
**A.** 80.68%

**Q.** And the Activity (SF-539)?
**A.** 65.31%

**Q.** And the Activity (SNB-19)?
**A.** 82.22%

**Q.** What about the Activity (SNB-75) of the same compound?
**A.** 84.66%

**Q.** What about the Activity (U-251) of the same compound?
**A.** 71.96%

**Q.** What about the Activity (LOX IMVI) of the same compound?
**A.** 68.86%

**Q.** What about the Activity (M14) of the same compound?
**A.** 84%

**Q.** And the Activity (SK-MEL-2)?
**A.** 83.39%

**Q.** And the Activity (SK-MEL-28)?
**A.** 112.15%

**Q.** And the Activity (SK-MEL-5)?
**A.** 74.87%

**Q.** And the Activity (UACC-257)?
**A.** 78.7%

**Q.** And the Activity (UACC-62)?
**A.** 85.18%

**Q.** And the Activity (IGROV-1)?
**A.** 72.84%

**Q.** And the Activity (OVCAR-3)?
**A.** 81.64%

**Q.** And the Activity (OVCAR-4)?
**A.** 60.6%

**Q.** And the Activity (OVCAR-5)?
**A.** 98.17%

**Q.** What about the Activity (OVCAR-8) of the same compound?
**A.** 76.03%

**Q.** And the Activity (SK-OV-3)?
**A.** 82.36%

**Q.** What about the Activity (A498) of the same compound?
**A.** 90.58%
